Experiments:
L68Q cystatin C = molecular target: T1, L68Q cystatin C (Homo sapiens, UniProt P01034, L94Q); assay: Preliminary trial of N-acetylcysteine in HCCAA patients expressing L68Q cystatin C, monitored by biopsy; format: in vivo
T1 construct: confirmed by genetic screen to express L68Q cystatin C; from tissue; host or cells: HCCAA patients; plaques and aggregated protein observed on biopsy
T1 sequence (P01034 27-146 L94Q): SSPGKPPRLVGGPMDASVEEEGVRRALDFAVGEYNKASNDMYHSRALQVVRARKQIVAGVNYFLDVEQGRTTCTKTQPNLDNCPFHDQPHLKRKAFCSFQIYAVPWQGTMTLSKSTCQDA
Excerpt: Three persons who had been identified through characteristic HCCAA symptoms confirmed by genetic screen to express L68Q cystatin C agreed to participate in a preliminary trial with a prototype drug to support antioxidant and other effects of GSH. N-acetylcysteine was used as a GSH-support/anti-cystatin-C-polymerization archetypical drug for conceptual proof and support of the hypotheses supporting this invention. […] One patient fully complied with the prescribed protocol. Two patients were only partially compliant. The fully compliant patient presented with a 50% reduction in plaques observed on biopsy.
Treatments are continuing, augmented by confirmatory/advisory biopsies. Biopsy intervals may be approximately weekly, but longer intervals are envisioned as sufficient to monitor effects and dosages and to encourage compliance in testing and treatment maintenance. For example, biopsy intervals may be weekly, biweekly, monthly, bimonthly, quarterly, semi-annual, annual, etc. Biopsy appointments may be used both for treatment/disease monitoring, but also to maintain patient attention and interaction. Medical advisory panels and insurance issues may also be considered in determining the frequency and type(s) of biopsies.

cellular glutathione = details: dose of about 22-65 mg/kg; cited from earlier work

CC(=O)N[C@@H](CS)C(=O)O [N-acetylcysteine]
disease arrest (L68Q cystatin C; all three HCCAA patients (one fully compliant, two partially compliant)): disease arrest
reduction in plaques observed on biopsy (L68Q cystatin C; fully compliant patient): 50%
reduction of aggregated protein previously observed (L68Q cystatin C; one of the two partially compliant patients): significant reduction

O=C1N[C@H](C(=O)O)CS1 [OTC, L-2-oxothiazolidine-4-carboxolate]
change in cellular glutathione shortly after administration (cellular glutathione): double
duration of effect, waning in plasma post administration (cellular glutathione): ≤ 8 h

From patent US20200215009A1, “Optimized Solution for the Treatment of Alzheimer's, Stroke, Cardiovascular and other Amyloid Related Diseases” (priority 2017, published 2020)
